Experimental data published in paper PMC7508162 (Frontiers in Pharmacology, 2020).

Legend:
NTPDase2 = molecular target: T1, NTPDase2 (Homo sapiens, UniProt Q9Y5L3); assay: Malachite green assay for NTPDase2; assay type: biochemical; parameters: expressed in transfected cells; host or cells: COS-7 cell membrane preparations; conditions: for Ki: ATP 50 µM, recombinant COS-7 cell membrane preparation, read-out: Ki ± SEM
T1 sequence (Q9Y5L3 1-495): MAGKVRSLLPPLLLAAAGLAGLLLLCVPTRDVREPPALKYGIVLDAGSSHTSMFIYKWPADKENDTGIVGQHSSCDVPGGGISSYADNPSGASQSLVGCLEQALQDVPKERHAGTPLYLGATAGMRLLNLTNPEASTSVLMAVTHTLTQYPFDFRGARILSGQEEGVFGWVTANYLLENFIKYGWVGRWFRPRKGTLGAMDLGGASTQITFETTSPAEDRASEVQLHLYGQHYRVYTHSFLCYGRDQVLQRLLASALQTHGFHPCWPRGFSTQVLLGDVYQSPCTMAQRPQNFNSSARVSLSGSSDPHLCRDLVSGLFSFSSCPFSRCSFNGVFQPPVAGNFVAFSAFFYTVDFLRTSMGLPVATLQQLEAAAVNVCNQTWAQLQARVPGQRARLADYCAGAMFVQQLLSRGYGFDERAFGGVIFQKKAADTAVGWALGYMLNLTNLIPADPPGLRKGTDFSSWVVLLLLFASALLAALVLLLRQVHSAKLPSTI
Experimental: The enzymatic activity assay was determined essentially as previously described ([Cogan et al., 1999]) with a few adaptations. The reaction buffer contained 10 mM HEPES, 2 mM CaCl2, 1 mM MgCl2, pH 7.4 in a final volume of 50 μl in transparent 96-well half area plates. For CD39 (NTPDase1), we made use of human umbilical cord membranes preparations which express high levels of the enzyme. For the other human NTPDase isoenzymes, we had to resort to recombinant expression. Human umbilical cord membrane preparations (250 ng) natively expressing high amounts of CD39, or the respective recombinant COS-7 cell membrane preparations expressing the appropriate NTPDase isoenzyme (ca. 100 ng of protein depending on enzyme activity) ([Sévigny et al., 1997]; [Lecka et al., 2013]) with or without inhibitor were preincubated at 37°C and gentle shaking (Eppendorf Thermomixer comfort at 500 rpm) for 5 min. The amount of enzyme preparation was adjusted to ensure 10–20% of substrate conversion. […] ([Kukulski et al., 2005]). After 15 min of incubation at 37°C with gentle shaking, the reaction was stopped by adding the detection reagents (20 µl malachite green solution, 0.6 mM, and 30 µl ammonium molybdate solution, 20 mM, in sulfuric acid, 1.5 M). The released (inorganic) phosphate was quantified after 20 min of gentle shaking at 25°C by measuring the absorption of the malachite green-phosphomolybdate complex at 600 nm using a BMG PheraStar FS plate reader (BMG Labtech GmbH, Ortenberg, Germany). The corrected absorption was calculated by subtracting the absorption of the negative control samples, which were incubated with denatured enzyme (90°C, 15 min), and the inhibition was calculated as follows:
(§1) % Inhibition=(B−T)/B*100%
(§2) where B is the average corrected absorption of the positive control without inhibitor and T the corrected absorption in the presence of test compound.
(§3) Full concentration-inhibition curves were determined with inhibitor concentrations ranging from 0.1 to 300 µM in the presence of 2% DMSO. Three independent experiments were performed (n = 3) and curves were calculated by the GraphPad Prism 8 software. The Ki value was calculated using the Cheng-Prusoff equation for competitive inhibitors: […]

[1] = Chemical stability of stock solutions by LC/ESI-MS analysis; assay type: physicochemical
Experimental: To ensure that degradation was caused by microsomal enzymes and not due to chemical instability, stock solutions were analyzed by LC/ESI-MS analysis, and were in all cases found to be stable. […] Nevertheless, they represent useful tool compounds for in vitro studies.

[2] = Metabolic stability in human liver microsomes; assay type: in vitro ADME; conditions: both sexes; human liver microsomes 0.5 mg/mL; compound 1 μM
Experimental: The experiments were performed by Pharmacelsus, Saarbrücken, Germany (https://www.pharmacelsus.com/services/in-vitro-adme/) using human and mouse liver microsomes (0.5 mg/mL, mixed gender, pooled). Compounds were tested at a concentration of 1 μM. Data points represent means of two separate experiments performed in duplicates.

P2 receptors = test system: P2 receptors; parameters: method as in Robson et al., 2006; conditions: ref Robson et al., 2006; cited from earlier work
human CD39 = molecular target: T2, human CD39 (Homo sapiens, UniProt P49961); assay: Malachite green assay for CD39 (natural substrate ATP); assay type: biochemical; parameters: Human umbilical cord membrane preparations (250 ng) natively expressing high amounts of CD39; from tissue; host or cells: human umbilical cord membranes; conditions: natural substrate ATP 50 µM, n = 3, read-out: Ki ± SEM (converted)
T2 sequence (P49961 1-510): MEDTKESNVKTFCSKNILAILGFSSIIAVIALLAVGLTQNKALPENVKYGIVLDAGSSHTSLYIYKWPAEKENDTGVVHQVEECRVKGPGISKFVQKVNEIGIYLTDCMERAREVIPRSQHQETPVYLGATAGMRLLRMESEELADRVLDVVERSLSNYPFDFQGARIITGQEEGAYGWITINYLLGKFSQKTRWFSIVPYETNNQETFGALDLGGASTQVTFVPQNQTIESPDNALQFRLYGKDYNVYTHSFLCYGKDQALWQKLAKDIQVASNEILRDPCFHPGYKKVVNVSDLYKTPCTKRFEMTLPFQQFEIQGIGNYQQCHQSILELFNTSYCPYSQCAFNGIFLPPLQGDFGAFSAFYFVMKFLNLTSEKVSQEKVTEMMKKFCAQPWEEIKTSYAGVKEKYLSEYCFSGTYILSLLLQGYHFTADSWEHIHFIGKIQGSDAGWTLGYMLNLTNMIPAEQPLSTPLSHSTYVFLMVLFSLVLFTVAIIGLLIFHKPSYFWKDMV
Experimental: They were minced and homogenized with a polytron in 95 mM NaCl, 0.1 mM phenylmethylsulfonyl fluoride (PMSF), and 45 mM Tris solution, pH 7.6. […] The pellets were resuspended in 5 mM Tris buffer solution, pH 8.0 and 10% glycerol. All purification steps were performed at 4°C. The preparations were kept at −80°C.
The reaction buffer contained 10 mM HEPES, 2 mM CaCl2, 1 mM MgCl2, pH 7.4 in a final volume of 50 μl in transparent 96-well half area plates. For CD39 (NTPDase1), we made use of human umbilical cord membranes preparations which express high levels of the enzyme. For the other human NTPDase isoenzymes, we had to resort to recombinant expression. […] The amount of enzyme preparation was adjusted to ensure 10–20% of substrate conversion. […] The released (inorganic) phosphate was quantified after 20 min of gentle shaking at 25°C by measuring the absorption of the malachite green-phosphomolybdate complex at 600 nm using a BMG PheraStar FS plate reader (BMG Labtech GmbH, Ortenberg, Germany).
as §1, §2, §3

In the case of CCN(CC)c1ncnc2c1ncn2[C@@H]1O[C@H](COP(=O)(O)OP(=O)(O)C(Br)(Br)P(=O)(O)O)[C@@H](O)[C@H]1O [ARL67156, (Dibromo((((((2R,3S,4R,5R)-5-(6-(diethylamino)-9H-purin-9-yl)-3,4-dihydroxytetrahydrofuran-2-yl)methoxy)-(hydroxy)-phosphoryl)oxy)(hydroxy)phosphoryl)methyl)-phosphonic Acid, reference compound], the Ki (NTPDase2; NTPDase2) is reported as > 50 µM, the “% inhibition” value (NTPDase2; NTPDase2, test concentration not given) is reported as 18% and the “stability of stock solutions” value [1] is reported as “stable”. For the same compound, the half-life at 1 μM [2] was < 1 min and the “effect on P2 receptors” value (P2 receptors) was “no significant effect”.

With CCCCSc1nc2c(N)ncnc2n1[C@@H]1O[C@H](COP(=O)(O)OP(=O)(O)C(Br)(Br)P(=O)(O)O)[C@@H](O)[C@H]1O [Compound 31, (((((((2R,3S,4R,5R)-5-(6-Amino-8-(butylthio)-9H-purin-9-yl)-3,4-dihydroxytetrahydrofuran-2-yl)methoxy)(hydroxy)-phosphoryl)oxy)(hydroxy)phosphoryl)dibromomethyl)-phosphonic Acid] the “NTPDase2 inhibition (in words)” value (NTPDase2) was “weakly inhibit”, the Ki (NTPDase2; NTPDase2) was 22.2 ± 0.5 µM and the “stability of stock solutions” value [1] was “stable”. The half-life at 1 μM [2] was < 1 min.

In the case of CCCCNc1nc2c(NC)ncnc2n1[C@@H]1O[C@H](COP(=O)(O)OP(=O)(O)C(Br)(Br)P(=O)(O)O)[C@@H](O)[C@H]1O [Compound 33, (Dibromo((((((2R,3S,4R,5R)-5-(8-(butylamino)-6-(methylamino)-9H-purin-9-yl)-3,4-dihydroxy-tetrahydrofuran-2-yl)methoxy)(hydroxy)phosphoryl)oxy)-(hydroxy)phosphoryl)methyl)-phosphonic Acid], the Ki (NTPDase2; NTPDase2) is reported as 78 ± 0.6 µM, the “stability of stock solutions” value [1] is reported as “stable” and the Ki (human CD39) is reported as 3.35 µM. The half-life at 1 μM [2] was < 1 min.
